Where “and” joins values, the source holds several entries; their conditions need not be identical. Equal entries are not always repeated. Where two headings read alike, the source gives them in different places.
Key:
Assay type in all cases: cell-based
[1] = test system: Klebsiella pneumoniae (ATCC#13583); assay: Microtiter plate synergy test (MIC, Kull synergy index), bacteria, Trypticase Soy Broth; conditions: for MIC: Klebsiella pneumoniae, read-out: Alone ppm (MIC of compound acting alone)
Text: (§1) One measure of synergism is the industrially accepted method described by Kull, F. C.; Eisman, P. C.; Sylwestrowicz, H. D. and Mayer, R. L., in Applied Microbiology 9:538-541 (1961), using the ratio determined by the formula: Qa/QA+Qb/QB=Synergy Index (“SI”) wherein: • QA=concentration of compound A (first component) in ppm, acting alone, which produced an end point (MIC of Compound A). • Qa=concentration of compound A in ppm, in the mixture, which produced an end point. • QB=concentration of compound B (second component) in ppm, acting alone, which produced an end point (MIC of Compound B). • Qb=concentration of compound B in ppm, in the mixture, which produced an end point.
(§2) When the sum of Qa/QA and Qb/QB is greater than one, antagonism is indicated. […] The lower the SI, the greater the synergy shown by that particular mixture. The minimum inhibitory concentration (MIC) of an antimicrobial compound is the lowest concentration tested under a specific set of conditions that prevents the growth of added microorganisms.
(§3) Synergy tests were conducted using standard microtiter plate assays (12 columns, 1-12×8 rows, A-H) with media designed for optimal growth of the test microorganism. Full-strength nutrient medium, Trypticase Soy Broth, TSB, for bacteria, or Potato Dextrose Broth, PDB, for fungi, was used for testing. Growth medium (160 μL) was dispensed into columns 2-6 and 8-12 of the plate. A total of 40 plates were made with each growth medium. Stock solutions of N-(n-butyl)-1,2-benzisothiazolin-3-one were made from DENSIL DG 20 (20% active ingredient (AI), n-BBIT, in propylene glycol, obtained from Avecia Inc.) at the following concentrations based on total product weight: 5000 ppm (0.2 g DENSIL DG 20 in 40 g growth medium), 4000 ppm, 3500 ppm, 3000 ppm, 2500 ppm, 2000 ppm, 1500 ppm, 1000 ppm and 900 ppm. Isothiazolone stock solutions were made as follows. KATHON LX (1.97% active, 3:1 CMI/MI mixture): active ingredient concentrations at 144 ppm, 36 ppm, 10 ppm, 5 ppm and 1 ppm. ROZONE 2000 (20% active, DCOIT): active ingredient concentrations at 144 ppm, 36 ppm, 10 ppm, 5 ppm and 1 ppm. ROCIMA 550 (9.5% active, MI): active ingredient concentrations at 4800 ppm, 2400 ppm, 900 ppm, 360 ppm and 180 ppm. DENSIL DG 20 stock solution was dispensed in each well of columns 1 and 7 of a microtiter plate, as described below:
(§4) 5000 ppm of stock solution was tested against Ps. aeruginosa in 1A, 7A. The 900 ppm stock was not tested against this organism. A 40 μL aliquot was transferred from each well in column 1 to column 2 and serially diluted to column 5; the aliquots from column 5 was discarded. Column 6 was the control. The same procedure was repeated from column 7 to column 11, and the aliquots from column 11 discarded. At the end of this procedure, each well should contain 160 μL of solution.
(§5) The isothiazolone stock solutions were added to various columns so that each well contained the desired concentration of the isothiazolone and the DENSIL DG20. The DENSIL DG20 alone as well as the isothiazolone alone were included as controls. An example of the combination of 11 ppm KATHON LX 1.5% (on an active ingredient basis) with DENSIL DG20 is shown below:
(§6) DENSIL DG20 alone (columns 1-5); untreated control (column 6); combination evaluations (columns 7-11); KATHON LX 1.5% control (column 12). Inoculum (10 μL) was dispensed into each well from column 1-12. […] The MIC of each biocide was determined from the plates, and then SI was determined.
(§7) The following Tables summarize data for combinations of n-BBIT with other isothiazolones (ITA), along with their synergy index (SI) and the ratio of n-BBIT:ITA. All amounts of n-BBIT and ITA are reported as ppm of active ingredient. Results for testing against various organisms are grouped with results against fungi (F) reported together, and then results against bacteria (B).
(§8) Typical contact time for bacteria is 24-48 hours and 3-7 days for fungi. […]

[2] = test system: Staphylococcus aureus (ATCC#6538); assay: as above; conditions: S. aureus, ppm active ingredient; for MIC: Staphylococcus aureus, ATCC6538, read-out: Alone ppm (MIC of compound acting alone)
Text: as §1, §2, §3, §4, §5, §6, §7, §8

[3] = test system: Proteus mirabilis (ATCC#unknown); assay: as above; conditions: P. mirabilis, contact time 48 hr, ppm active ingredient
Text: as §1, §2, §3
(§9) 5000 ppm of stock solution was tested against Ps. aeruginosa in 1A, 7A. The 900 ppm stock was not tested against this organism. […]
(§10) DENSIL DG20 alone (columns 1-5); untreated control (column 6); combination evaluations (columns 7-11); KATHON LX 1.5% control (column 12). […] The MIC of each biocide was determined from the plates, and then SI was determined. […]

[4] = test system: Fusarium moniliforme (ATCC#58929); assay: Microtiter plate synergy test (MIC, Kull synergy index), fungi, Potato Dextrose Broth; conditions: for MIC: Fusarium verticillioides, read-out: Alone ppm (MIC of compound acting alone)
Text: as §1, §2, §3, §4, §5, §6, §7, §8

[5] = test system: Candida albicans (ATCC#10231); assay: as above
Text: as §1, §2, §3, §4, §5
(§11) DENSIL DG20 alone (columns 1-5); untreated control (column 6); combination evaluations (columns 7-11); KATHON LX 1.5% control (column 12). Inoculum (10 μL) was dispensed into each well from column 1-12. The plates were incubated (bacterial plates at 48 hrs., 30° C.; fungal plates at 7 days, 25° C.). The MIC of each biocide was determined from the plates, and then SI was determined.
as §7, with “(B). […]” for “(B).”

[6] = test system: Gliocladium viridie (Tricoderma viridie)(isolate); assay: as above; conditions: for MIC: read-out: Alone ppm (MIC of compound acting alone); for Alone ppm (MIC of compound acting alone): G. viridie, ppm active ingredient
Text: as §1, §2, §3, §4, §5, §11
as §7, with “(B). […]” for “(B).”

[7] = test system: Pseudomonas aeruginosa (ATCC#15442); assay: Microtiter plate synergy test (MIC, Kull synergy index), bacteria, Trypticase Soy Broth; conditions: for MIC: Pseudomonas aeruginosa, read-out: Alone ppm (MIC of compound acting alone); for Alone ppm (MIC of compound acting alone): Ps. aeruginosa, ppm active ingredient
Text: as §1, §2, §3, §4, §5, §6, §7, §8

[8] = test system: Aspergillus niger (ATCC#16404); assay: Microtiter plate synergy test (MIC, Kull synergy index), fungi, Potato Dextrose Broth; conditions: for Alone ppm (MIC of compound acting alone): A. niger, ppm active ingredient
Text: as §1, §2, §3, §4, §5, §6, §7, §8

[9] = test system: Escherichia coli (ATCC#8739); assay: Microtiter plate synergy test (MIC, Kull synergy index), bacteria, Trypticase Soy Broth; conditions: E. coli, ppm active ingredient
Text: as §1, §2, §3, §9, §10

## CCCCCCCCn1sc(Cl)c(Cl)c1=O [DCOIT, 4,5-dichloro-2-n-octyl-4-isothiazolin-3-one]
[1]; ATCC13583, K. pneumoniae, contact time 48 hr, ppm active ingredient
  MIC: 11 µg/mL
[2]; contact time 24 hr
  MIC: 6 µg/mL
[2]; contact time 48 hr
  MIC: 9 µg/mL
[3]; Proteus mirabilis, read-out: Alone ppm (MIC of compound acting alone)
  MIC: 5 µg/mL
[4]; ATCC58929, 72 h, F. moniliforme, contact time 3 days, ppm active ingredient
  MIC: 0.28 µg/mL
[4]; ATCC58929, 168 h, F. moniliforme, contact time 7 days, ppm active ingredient
  MIC: 1 µg/mL

## Cn1sccc1=O [MI, 2-methyl-4-isothiazolin-3-one]
[5]; Candida albicans, ATCC10231, 168 h, read-out: Alone ppm (MIC of compound acting alone)
  MIC: 25 µg/mL
[6]; 72 h
  MIC: 107 µg/mL
[6]; 168 h
  MIC: 133 µg/mL
[7]; ATCC15442, 24 h
  MIC: 20 µg/mL
[7]; ATCC15442, 48 h
  MIC: 25 µg/mL
[1]; ATCC13583, 24 h
  MIC: 25 µg/mL
[8]; Aspergillus niger, ATCC16404, 168 h, read-out: Alone ppm (MIC of compound acting alone)
  MIC: 200 µg/mL
[4]; ATCC58929, 72 h
  MIC: 200 µg/mL
[4]; ATCC58929, 168 h
  MIC: 200 µg/mL

## CCCCn1sc2ccccc2c1=O [n-BBIT, N-(n-butyl)-1,2-benzisothiazolin-3-one]
[5]; C. albicans, contact time 7 days, ppm active ingredient
  Alone ppm (MIC of compound acting alone): 124 ppm
[6]; contact time 3 days
  Alone ppm (MIC of compound acting alone): 711 ppm
[6]; contact time 7 days
  Alone ppm (MIC of compound acting alone): >711 ppm
[7]; contact time 24 hr
  Alone ppm (MIC of compound acting alone): 711 ppm
[7]; contact time 48 hr
  Alone ppm (MIC of compound acting alone): 711 ppm
[1]; K. pneumoniae, contact time 24 hr, ppm active ingredient
  Alone ppm (MIC of compound acting alone): 267 ppm
[1]; K. pneumoniae, contact time 48 hr, ppm active ingredient
  Alone ppm (MIC of compound acting alone): 267 ppm
[2]; contact time 24 hr
  Alone ppm (MIC of compound acting alone): 36 ppm
[2]; contact time 48 hr
  Alone ppm (MIC of compound acting alone): 53 ppm
[9]; contact time 24 hr
  Alone ppm (MIC of compound acting alone): 356 ppm
[9]; contact time 48 hr
  Alone ppm (MIC of compound acting alone): 533 ppm
[3]
  Alone ppm (MIC of compound acting alone): 18 ppm
[8]; contact time 3 days
  Alone ppm (MIC of compound acting alone): 28 ppm
[8]; contact time 7 days
  Alone ppm (MIC of compound acting alone): 53 ppm
[4]; F. moniliforme, contact time 3 days, ppm active ingredient
  Alone ppm (MIC of compound acting alone): 267 ppm and 444 ppm
[4]; F. moniliforme, contact time 7 days, ppm active ingredient
  Alone ppm (MIC of compound acting alone): 533 ppm and 356 ppm and 267 ppm

Source: patent US20050197366A1, “Antimicrobial composition containing N-(n-butyl)-1,2-benzisothiazolin-3-one” (priority 2004, published 2005)
